Data published in patent US10098840B2, “Nanoparticulate composition containing antibiotics for intramammary administration in animals” (priority 2010, dated 2018).

What was measured:
[1] = Degradation of the drug by HPLC during the dissolution test at pH 7.4; assay type: physicochemical; details: until 540 minutes of test
Procedure: In this work, the dissolution was conducted in pH 7.4 for it is about the pH of the milk of animals with mastitis (Gruet et al., 2001).

[2] = In vitro release profile of cloxacillin benzathine by direct dialysis in PBS:PEG and PBS:milk; assay type: physicochemical; details: 37° C.; PBS:PEG vs PBS:milk
Procedure: The evaluation of the release profile in vitro of the cloxacillin benzathine from the nanocarriers of reservoir type was performed according to the direct dialysis technique in two different release environments. Dialysis bags were inserted in containers containing a buffered saline solution and 1% polyethylene glycol 300 (PBS:PEG) or a buffered saline containing 1% of skimmed milk (PBS:milk) under 37° C. with moderate stirring. […] In pre-defined lapses, aliquots were removed and the environment was re-added with the same volume withdrawn. Right after, the samples were prepared and the supernatant dosed.

degradation of the drug [1]: no degradation
SMILES: Cc1onc(-c2ccccc2Cl)c1C(=O)N[C@@H]1C(=O)N2[C@@H]1SC(C)(C)[C@@H]2C(=O)O [CLOXB, cloxacillin benzathine]
release depending on the environment (1% PEG vs 1% milk), in words [2]: release was bigger in environment containing 1% of PEG
